Test results as given in patent publication US7862824B2, “Enhancement of GLP-2 activity of suppressing appetite” (1149336 Ontario, Inc., priority 2001, dated 2011).
Where no end group is shown, it is not given here.

Experiments:
rats = details: cited from earlier work
[1] = tested on: human subjects with short bowel syndrome; details: 400 ug twice daily; cited from earlier work
adult male CD1 mice = assay: Intracerebroventricular peptide injection and food intake in wildtype mice; type: in vivo, mouse; details: for dark phase food intake: icv prior to dark phase; for dark phase food intake / food intake in fasted mice: h[Gly2]-GLP-2 50 ug, exendin-4 1 ug; for food intake in fasted mice: after 15 hour fast
Description: FIG. 1: h[Gly^2]-GLP-2 (also designated “440” in the Figure) inhibits dark phase food intake in mice. […] Following recovery, food intake was measured at 1, 2, and 4 hours (Hr) after injection. Values are expressed as mean±S.E.M., n=6 per group for (a) and n=8-20 for (b). (c) Groups of wildtype mice were administered either vehicle (PBS), h[Gly^2]-GLP-2 (50 ug dissolved in PBS), h[Gly^2]-GLP-2 and exendin (9-39) (50 ug of each peptide dissolved in PBS) or exendin (9-39) alone (50 ug dissolved in PBS) via icv injection. (f) Groups of wildtype mice were administered (icv) either vehicle (PBS), h[Gly^2]-GLP-2 alone (50 ug dissolved in PBS), or h[Gly^2]-GLP-2 (50 ug dissolved in PBS) and exendin (9-39) (0.05, 0.5 or 5 ug dissolved in PBS). (e) Groups of wildtype and GLP-1R−/− mice were injected icv with either vehicle (PBS) or h[Gly^2]-GLP-2 (50 ug dissolved in PBS) just prior to the start of dark phase and food intake was measured at 1, 2, and 4 hours. Data are expressed as mean±S.E.M., n=5-8 for all groups. Treatments at each time point for experiments shown in FIG. 1 were compared using a one way analysis of variance followed by an LSD multiple range test using SPSS for Windows version 5.0.1 (SPSS Inc., Chicago Ill.). *p<0.05 compared to controls (PBS), or to comparisons between groups indicated by connected lines.
For icv injections adult male CD1 mice randomized into multiple experimental groups were deeply anesthetized by inhalation of methoxyflurane (Metophane; Janssen, Toronto Ontario) (43). Following icv injections of equal volumes of saline or peptide dissolved in saline, animals were allowed to recover for ^˜15-20 minutes until the observation of a righting-response. Mice were then weighed, given a premeasured quantity of rodent chow and food intake was quantified at 1, 2, 4 and 22 hours. The accuracy of icv injection was verified at autopsy analysis by detection of bromophenol dye in the lateral ventricles of selected animals. Animals were injected with peptide at either 19:00 hours (for dark phase feeding studies) or at 10:00 hours following an overnight fast of 15 hours (for fasting studies).

GLP-1R-/- mice = assay: Intracerebroventricular peptide injection and food intake in GLP-1R-/- mice; type: in vivo, mouse; details: icv 50 ug; dark phase; 0-1 hour and 2-4 hour time points
Description: FIG. 1: h[Gly^2]-GLP-2 (also designated “440” in the Figure) inhibits dark phase food intake in mice. […] Following recovery, food intake was measured at 1, 2, and 4 hours (Hr) after injection. Values are expressed as mean±S.E.M., n=6 per group for (a) and n=8-20 for (b). (c) Groups of wildtype mice were administered either vehicle (PBS), h[Gly^2]-GLP-2 (50 ug dissolved in PBS), h[Gly^2]-GLP-2 and exendin (9-39) (50 ug of each peptide dissolved in PBS) or exendin (9-39) alone (50 ug dissolved in PBS) via icv injection. (f) Groups of wildtype mice were administered (icv) either vehicle (PBS), h[Gly^2]-GLP-2 alone (50 ug dissolved in PBS), or h[Gly^2]-GLP-2 (50 ug dissolved in PBS) and exendin (9-39) (0.05, 0.5 or 5 ug dissolved in PBS). (e) Groups of wildtype and GLP-1R−/− mice were injected icv with either vehicle (PBS) or h[Gly^2]-GLP-2 (50 ug dissolved in PBS) just prior to the start of dark phase and food intake was measured at 1, 2, and 4 hours. Data are expressed as mean±S.E.M., n=5-8 for all groups. […]
For icv injections adult male CD1 mice randomized into multiple experimental groups were deeply anesthetized by inhalation of methoxyflurane (Metophane; Janssen, Toronto Ontario) (43). […] Mice were then weighed, given a premeasured quantity of rodent chow and food intake was quantified at 1, 2, 4 and 22 hours. […]

rat GLP-2 receptor = target: T1, rat GLP-2 receptor (Rattus norvegicus, UniProt Q9Z0W0); assay: cAMP accumulation in BHK cells stably expressing the rat GLP-2 receptor (RIA); type: cell-based; details: BHK-GLP-2R cells
T1 construct: expressed in transfected cells; host or cells: BHK (baby hamster kidney fibroblast) cells, stably transfected
T1 sequence (Q9Z0W0 1-550): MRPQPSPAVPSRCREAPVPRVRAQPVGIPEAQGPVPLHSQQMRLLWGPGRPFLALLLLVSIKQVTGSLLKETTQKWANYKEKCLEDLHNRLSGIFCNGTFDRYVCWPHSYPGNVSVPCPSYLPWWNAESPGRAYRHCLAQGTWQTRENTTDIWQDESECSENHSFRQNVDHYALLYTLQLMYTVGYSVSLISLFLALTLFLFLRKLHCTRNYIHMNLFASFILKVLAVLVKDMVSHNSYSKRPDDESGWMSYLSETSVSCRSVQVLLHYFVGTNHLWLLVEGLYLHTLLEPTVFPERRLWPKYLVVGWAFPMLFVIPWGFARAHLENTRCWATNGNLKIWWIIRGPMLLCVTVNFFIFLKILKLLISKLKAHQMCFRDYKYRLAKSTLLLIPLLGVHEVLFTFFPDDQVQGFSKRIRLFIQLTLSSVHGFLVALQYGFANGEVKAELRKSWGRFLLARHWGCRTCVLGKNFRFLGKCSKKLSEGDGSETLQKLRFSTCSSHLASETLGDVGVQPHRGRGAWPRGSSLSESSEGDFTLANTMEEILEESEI
Description: Peptides were diluted in DMEM containing 100 μM IBMX. The cAMP concentration in aliquots of ethanol extract was determined using a RIA and normalized to show cAMP/well. […] The concentration of peptide is plotted on a logarithmic scale. Error bars represent mean±SD.
GLP-2 receptors were propagated as previously described (42) and levels of intracellular cAMP were assayed following exposure to individual peptides in DMEM containing 100 μM IBMX (Sigma Chemical Co., St. Louis, Mo.) as reported (41,42). […] The treated cells were then incubated at 37° C. for 10 minutes. Absolute ethanol (−20° C.) was added to terminate the reaction and the plates were stored at −80° C. until the cell extracts were collected (2-4 hours later). Forskolin was used as a positive control. Cyclic adenosine monophosphate (cAMP) radioimmunoassays (Biomedical Technologies, Stoughton, Mass.) were performed on dried aliquots of extract and data was normalized to cAMP/well. All treatments were performed in triplicate or quadruplicate and the data is expressed as mean±SD. EC50 values were calculated using GraphPad Prism 3.00 (GraphPad Software Inc., San Diego, Calif.).

rat GLP-1 receptor = target: T2, rat GLP-1 receptor (Rattus norvegicus, UniProt P32301); assay: cAMP accumulation in BHK cells stably expressing the rat GLP-1 receptor (RIA); type: cell-based; details: BHK-GLP-1R cells
T2 construct: expressed in transfected cells; host or cells: BHK (baby hamster kidney fibroblast) cells, stably transfected
T2 sequence (P32301 22-463): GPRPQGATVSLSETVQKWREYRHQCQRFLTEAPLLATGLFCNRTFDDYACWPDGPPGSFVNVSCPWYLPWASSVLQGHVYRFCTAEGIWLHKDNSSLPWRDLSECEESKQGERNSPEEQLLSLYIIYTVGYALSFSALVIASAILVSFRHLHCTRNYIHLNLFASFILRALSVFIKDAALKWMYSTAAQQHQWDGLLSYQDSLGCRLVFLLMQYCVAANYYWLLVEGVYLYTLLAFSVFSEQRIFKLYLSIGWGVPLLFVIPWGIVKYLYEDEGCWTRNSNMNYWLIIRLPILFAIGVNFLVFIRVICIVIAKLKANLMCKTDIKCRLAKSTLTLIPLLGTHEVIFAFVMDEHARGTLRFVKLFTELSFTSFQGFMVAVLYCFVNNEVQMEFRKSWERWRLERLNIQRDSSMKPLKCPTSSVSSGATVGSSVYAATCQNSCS

Compound: glucagon-like peptide 2 (HADGSFSDEMNTILDNLAARDFINWLIQTKITD; also: acetate salt; UniProt P01275 146-178, looked up) [GLP-2, wild type glucagon-like peptide 2; literature results in rats (icv) and in humans as acetate salt]
- food intake in rats after icv infusion (rats; icv): inhibited food intake
- therapeutic response in short bowel patients [1]: significant therapeutic response

Compound: CC[C@H](C)[C@H](NC(=O)[C@H](Cc1ccccc1)NC(=O)[C@H](CC(=O)O)NC(=O)[C@H](CCCNC(=N)N)NC(=O)[C@H](C)NC(=O)[C@H](C)NC(=O)[C@H](CC(C)C)NC(=O)[C@H](CC(N)=O)NC(=O)[C@H](CC(=O)O)NC(=O)[C@H](CC(C)C)NC(=O)[C@@H](NC(=O)[C@@H](NC(=O)[C@H](CC(N)=O)NC(=O)[C@H](CCSC)NC(=O)[C@H](CCC(=O)O)NC(=O)[C@H](CC(=O)O)NC(=O)[C@H](CO)NC(=O)[C@H](Cc1ccccc1)NC(=O)[C@H](CO)NC(=O)CNC(=O)[C@H](CC(=O)O)NC(=O)CNC(=O)[C@@H](N)Cc1c[nH]cn1)[C@@H](C)O)[C@@H](C)CC)C(=O)N[C@@H](CC(N)=O)C(=O)N[C@@H](Cc1c[nH]c2ccccc12)C(=O)N[C@@H](CC(C)C)C(=O)N[C@H](C(=O)N[C@@H](CCC(N)=O)C(=O)N[C@H](C(=O)N[C@@H](CCCCN)C(=O)N[C@H](C(=O)N[C@H](C(=O)N[C@@H](CC(=O)O)C(=O)O)[C@@H](C)O)[C@@H](C)CC)[C@@H](C)O)[C@@H](C)CC [h[Gly^2]-GLP-2]
- dark phase food intake (adult male CD1 mice): significantly inhibited
- food intake in fasted mice (adult male CD1 mice; icv): not
- food intake in the first hour after injection, absence of exendin (9-39) (adult male CD1 mice; icv, dark phase, 50 ug): did not inhibit food intake
- duration of inhibitory effect on food intake (adult male CD1 mice; icv, data not shown): transient and not detectable after more than 4 hours
- inhibition of food intake with co-administered exendin (9-39) (adult male CD1 mice; icv, wildtype mice, 50 ug of each peptide, multiple time intervals including first hour): significantly more pronounced
- inhibition of food intake in GLP-1R-/- mice compared with +/+ control mice (GLP-1R-/- mice): significantly greater sensitivity
- cAMP accumulation (agonist effect) (rat GLP-2 receptor): increased cAMP accumulation in a dose-dependent manner
- EC50 (rat GLP-2 receptor; 0 nM Exendin (9-39) pre-treatment): 0.044 nM
- EC50 (rat GLP-2 receptor; in the presence of 50 nM Exendin (9-39)): 0.059 nM
- EC50 (rat GLP-2 receptor; in the presence of 500 nM Exendin (9-39)): 0.076 nM
- EC50 (rat GLP-2 receptor; in the presence of 1000 nM Exendin (9-39)): 0.081 nM
- cAMP accumulation (agonist effect) (rat GLP-1 receptor): no effect on cAMP accumulation

Compound: Rat GLP-1 (7-36)NH2 [reference compound]
- cAMP accumulation (agonist effect) (rat GLP-2 receptor): no cAMP accumulation was detected

Compound: exendin (9-39) [reference compound]
- effect on the anorectic effects of GLP-2 in rats (rats): completely inhibited
- amount sufficient for significant potentiation of anorectic effect of h[Gly2]-GLP-2 (adult male CD1 mice; icv with h[Gly2]-GLP-2 50 ug, dark phase, 1-2 hour time point): 0.05 µg
- effect on h[Gly2]-GLP-2-stimulated cAMP formation (antagonism) (rat GLP-2 receptor; exendin (9-39) 50-1000 nM): no effect
- effect on GLP-1-stimulated cAMP accumulation (antagonism) (rat GLP-1 receptor): decreased GLP-1-stimulated cAMP accumulation in a concentration-dependent manner

Compound: exendin-4 [reference compound]
- dark phase food intake (adult male CD1 mice): significantly inhibited
- food intake in fasted mice (adult male CD1 mice; icv): inhibited food intake
- inhibitory effect on dark phase food intake compared with h[Gly2]-GLP-2 (adult male CD1 mice; icv, dark phase): significantly more potent
- cAMP accumulation (agonist effect) (rat GLP-2 receptor): no cAMP accumulation was detected
